Earlier results as cited in US20070231388A1, “Novel Pharmaceutical Dosage Form and Manufacturing Process” (Atlana Pharma AG, priority 2004, published 2007).

Settings: in comparison to pantoprazole itself or to pantoprazole sodium sesquihydrate

stability properties: improved stability properties
Structure (SMILES): COc1ccnc(C[S+]([O-])c2nc3cc(OC(F)F)ccc3[n-]2)c1OC.COc1ccnc(C[S+]([O-])c2nc3cc(OC(F)F)ccc3[n-]2)c1OC.O.O.[Mg+2] (stereo not shown) [Magnesium bis[5-[difluoromethoxy]-2-[[3,4-dimethoxy-2-pyridinyl]-methyl]sulfinyl]-1H-benzimidazolide]dihydrate]
